# Measured values: patent publication US20250003994A1, “DEVICE AND METHOD FOR TREATING TISSUE OXYGEN DEFICIENT CONDITIONS” (IP SCIENCE LIMITED, priority 2021, published 2025)
# Assays:
# Format in all cases: in vivo, human
# [1] = test system: clinically healthy volunteers; assay: Blood LDL concentration, one-month intake, Example 2.4
# Excerpt: Since oxygen solubility is higher in lipids than in aqueous media, it was interesting to examine a possible link between changes in OCCL and lipoprotein concentration in blood.
# (§1) For this study […] clinically healthy volunteers were recruited (age 35-57 years old), 30 male and 34 female). The subjects had not taken any medication or dietary supplements prior to the experiment. The volunteers were randomized and divided into 7 groups of 8 persons each. The participants were given a one-month supply of a particular nutraceutical or pharmaceutical. […] The daily dose for each product was taken in 1 capsule with the main meal of the day. The blood and StO2 were analyzed prior the trial and after (4 weeks). OCCL was analyzed as described above.
# [2] = test system: clinically healthy volunteers; assay: Oxygen carrying capacity of plasma lipoproteins (OCCL) by catalymetry assay, one-month intake, Example 2.4; conditions: for Effect of regular intake on OCCL (in words): 4 weeks daily intake
# Description: 6 healthy volunteers (HV, 42-61 years old) and 4 CAD patients, eligible for the treadmill test (age 45-59 years old) were recruited for this study. Apart from assessing changes their electrocardiogram (ECG), pulse and blood pressure, samples and level of oxygen carrying capacity of plasma lipoproteins, OCCL, from venous blood was analyzed prior to the test and within 3-4 minutes afterward. The measurement was conducted using a catalymetry assay. In short, 10 μl of citrate plasma was added to 0.98 ml cuvette of 0.05 M phosphate buffer with 0.1 mM sodium ethylenediamine tetraacetic acid (EDTA-Na), containing 10^−6 M phenazine methosulphate and 10^−4 M nitro blue tetrazolium chloride (NBT). The reaction was initiated by adding 10 μl of 10^−4 M NADH.
# The difference in absorption at λ=560 nm between starting point and after 60 seconds was measured by spectroscopy. This difference was used to measure oxygen-depended reduction of NBT. The results of this reaction were compared with the control reaction where instead of plasma 10 μl of the reaction buffer was added. The difference in the reduction of NBT with the analyzed sample and the control was used to calculate the amount of O2 in added plasma lipoproteins.
# In this section the effects of regular intake of validated bioactive nutraceuticals on blood OCCL and tissue oxygen saturation (StO2) was evaluated.
# as §1
# [3] = test system: clinically healthy volunteers; assay: Tissue oxygen saturation (StO2) by near-infrared spectroscopy with stagnant ischemia, Example 2.4; conditions: for StO2: area under hyperemic curve post occlusion; for Effect of regular intake on StO2 / peripheral tissue oxygenation (in words): 4 weeks daily intake
# Description: as §1
# Thenar eminence and forearm muscles of the patients were used as a tissue target for the assessment of StO2, or combined level of oxygenated hemoglobin and myoglobin. StO2 was assessed by continuous wavelength near-infrared spectroscopy, NIRS, with wide-gap second-derivative (In Spectra, Hutchinson Technology, MN, USA), as known in the art. The measurements were taken at different time points. The recording was initiated after 15 min of rest in a supine position, before occlusion of the brachial artery. It was then continued during stagnant ischemia induced by rapidly inflating a cuff to 50 mm Hg above systolic BP. The ischemia lasted for 3 min, and the recording period lasted for an additional 5 min, until StO2 was stabilized
# The area under the hyperemic curve, AUC, of the recorded signal for the settling time in the post occlusion period was then calculated in AUC mm, or % O2/min. All body and vascular parameters were recorded in the morning between 8 and 10 a.m.
# [4] = 0 w (prior the trial), 8 per group
# [5] = 4 w, daily dose in 1 capsule with main meal
smiles,measurement,setting,value
COC1=C(OC)C(=O)C(C/C=C(\C)CC/C=C(\C)CC/C=C(\C)CC/C=C(\C)CC/C=C(\C)CC/C=C(\C)CC/C=C(\C)CC/C=C(\C)CC/C=C(\C)CCC=C(C)C)=C(C)C1=O [Coenzyme Q10],LDL,[1]; [4],143 ± 5.7 mg/dL
same,LDL,[1]; [5],140 ± 4.2 mg/dL
same,OCCL,[2]; 0 w (prior the trial),505 ± 66 ΔE at λ = 560 nm × 10^3
same,OCCL,[2]; [5],593 ± 64 ΔE at λ = 560 nm × 10^3
same,Effect of regular intake on OCCL (in words),[2],increase in OCCL
same,StO2,[3]; 0 w (prior the trial),75.0 ± 7.4 AUC mm
same,StO2,[3]; [5],84.0 ± 8.5 AUC mm
same,Effect of regular intake on StO2 / peripheral tissue oxygenation (in words),[3],significant improvement of peripheral tissue oxygenation
CC1=C(/C=C/C(C)=C/C=C/C(C)=C/C=C/C=C(C)/C=C/C=C(C)/C=C/C2=C(C)C(=O)[C@@H](O)CC2(C)C)C(C)(C)C[C@H](O)C1=O [Astaxanthin],LDL,[1]; [4],153 ± 7.3 mg/dL
same,LDL,[1]; [5],151 ± 6.2 mg/dL
same,OCCL,[2]; 0 w (prior the trial),539 ± 52 ΔE at λ = 560 nm × 10^3
same,OCCL,[2]; [5],770 ± 57 ΔE at λ = 560 nm × 10^3
same,StO2,[3]; 0 w (prior the trial),77 ± 0.74 AUC mm
same,StO2,[3]; [5],87 ± 0.84 AUC mm
CC(C)=CCC/C(C)=C/C=C/C(C)=C/C=C/C(C)=C/C=C/C=C(C)/C=C/C=C(C)/C=C/C=C(\C)CCC=C(C)C [Lycopene],LDL,[1]; [4],156 ± 6.1 mg/dL
same,LDL,[1]; [5],135 ± 7.0 mg/dL
same,OCCL,[2]; 0 w (prior the trial),648 ± 41 ΔE at λ = 560 nm × 10^3
same,OCCL,[2]; [5],786 ± 39 ΔE at λ = 560 nm × 10^3
same,StO2,[3]; 0 w (prior the trial),75 ± 0.73 AUC mm
same,StO2,[3]; [5],85 ± 0.61 AUC mm
C=C1CC[C@H](O)C/C1=C/C=C1\CCC[C@]2(C)[C@@H]([C@H](C)CCCC(C)C)CC[C@@H]12 [Vitamin D3],LDL,[1]; [4],156 ± 8.4 mg/dL
same,LDL,[1]; [5],144 ± 5.9 mg/dL
same,OCCL,[2]; 0 w (prior the trial),412 ± 48 ΔE at λ = 560 nm × 10^3
same,OCCL,[2]; [5],443 ± 51 ΔE at λ = 560 nm × 10^3
same,Effect of regular intake on OCCL (in words),[2],did not affect
same,StO2,[3]; 0 w (prior the trial),66.8 ± 6.0 AUC mm
same,StO2,[3]; [5],71.2 ± 6.8 AUC mm
same,Effect of regular intake on StO2 / peripheral tissue oxygenation (in words),[3],did not affect
CC/C=C\C/C=C\C/C=C\C/C=C\C/C=C\C/C=C\CCC(=O)O [DHA Omega 3],LDL,[1]; [4],155 ± 9.2 mg/dL
same,LDL,[1]; [5],154 ± 7.5 mg/dL
same,OCCL,[2]; 0 w (prior the trial),626 ± 34 ΔE at λ = 560 nm × 10^3
same,OCCL,[2]; [5],639 ± 42 ΔE at λ = 560 nm × 10^3
same,Effect of regular intake on OCCL (in words),[2],did not affect
same,StO2,[3]; 0 w (prior the trial),74 ± 0.71 AUC mm
same,StO2,[3]; [5],76 ± 0.92 AUC mm
same,Effect of regular intake on StO2 / peripheral tissue oxygenation (in words),[3],did not affect
"CCC(C)(C)C(=O)O[C@H]1C[C@@H](C)C=C2C=C[C@H](C)[C@H](CC[C@@H]3C[C@@H](O)CC(=O)O3)[C@H]21 [Simvastatin, reference compound]",OCCL,[2]; 0 w (prior the trial),451 ± 51 ΔE at λ = 560 nm × 10^3
same,OCCL,[2]; [5],504 ± 53 ΔE at λ = 560 nm × 10^3
same,StO2,[3]; 0 w (prior the trial),70 ± 0.72 AUC mm
same,StO2,[3]; [5],73 ± 0.81 AUC mm
